The source of these data is patent US6380235B1, “Benzimidazolones and analogues” (American Home Products Corporation, priority 1999, dated 2002).

Structures are written as SMILES. Values joined by “and” are separate entries in the source; they are usually repeats but may differ in a detail not shown here. Equal entries are not always repeated.

In one data set the target is T1, human PR (Homo sapiens, UniProt P06401).
T1 construct: expressed in transfected cells; host or cells: CV-1 cells, electroporated with pLEM-hPR-B and pGL3-2xPRE-luciferase
T1 sequence (P06401 1-933): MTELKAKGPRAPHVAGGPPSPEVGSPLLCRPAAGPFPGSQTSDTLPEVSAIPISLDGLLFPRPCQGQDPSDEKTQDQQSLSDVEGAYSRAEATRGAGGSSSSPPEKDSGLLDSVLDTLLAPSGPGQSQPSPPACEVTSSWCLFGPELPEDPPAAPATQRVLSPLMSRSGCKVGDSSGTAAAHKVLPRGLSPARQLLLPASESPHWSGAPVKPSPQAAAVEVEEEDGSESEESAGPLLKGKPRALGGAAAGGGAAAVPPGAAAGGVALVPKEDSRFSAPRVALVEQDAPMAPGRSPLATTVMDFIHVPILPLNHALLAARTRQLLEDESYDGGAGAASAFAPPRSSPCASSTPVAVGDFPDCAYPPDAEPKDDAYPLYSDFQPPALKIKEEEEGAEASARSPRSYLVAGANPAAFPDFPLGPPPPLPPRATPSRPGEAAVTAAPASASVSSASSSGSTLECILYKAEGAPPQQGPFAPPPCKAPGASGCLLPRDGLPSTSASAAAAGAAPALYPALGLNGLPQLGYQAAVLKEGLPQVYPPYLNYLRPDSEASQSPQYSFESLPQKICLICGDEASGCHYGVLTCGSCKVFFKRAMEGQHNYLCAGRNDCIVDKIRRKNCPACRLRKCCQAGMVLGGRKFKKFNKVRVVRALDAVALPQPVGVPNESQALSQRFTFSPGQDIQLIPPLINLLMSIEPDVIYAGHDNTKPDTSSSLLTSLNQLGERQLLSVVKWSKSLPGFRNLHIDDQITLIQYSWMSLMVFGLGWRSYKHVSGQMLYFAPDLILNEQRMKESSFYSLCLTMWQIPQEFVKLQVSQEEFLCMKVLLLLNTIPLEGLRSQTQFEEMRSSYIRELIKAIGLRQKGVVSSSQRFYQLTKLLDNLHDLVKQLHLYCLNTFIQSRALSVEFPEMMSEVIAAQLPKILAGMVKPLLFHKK
The data set is described as follows: PRE-luciferase assay in CV-1 cells (hPR CV-1). The class given is cell-based. The protocol:
3. PRE-luciferase Assay in CV-1 Cells
The object of this assay is to determine a compound's progestational or antiprogestational potency based on its effect on PRE-luciferase reporter activity in CV-1 cells co-transfected with human PR and PRE-luciferase plasmids. The materials methods used in the assay are as follows.
DMEM (BioWhittaker) containing 10% (v/v) fetal bovine serum (heat inactivated), 0.1 mM MEM non-essential amino acids, 100 U/ml penicillin, […] streptomycin, and 2 mM GlutaMax (GIBCO, BRL). Experimental medium: DMEM (BioWhittaker), phenol red-free, containing 10% (v/v) charcoal-stripped fetal bovine serum (heat-inactivated), 0.1 mM MEM non-essential amino acids, 100 U/ml penicillin, […] streptomycin, and 2 mM GlutaMax (GIBCO, BRL).
b. Cell Culture Transfection Treatment, and Luciferase Assay
Stock CV-1 cells are maintained in growth medium. Co-transfection is done using 1.2×10^7 cells, […] pLEM plasmid with hPR-B inserted at Sphl and BamHl sites, 10 mg pGL3 plasmid with two PREs upstream of the luciferase sequence, and 50 mg sonicated calf thymus DNA as carrier DNA in […]. Electroporation is carried out at 260 V and […] in a Biorad Gene Pulser II. After electroporation, cells are resuspended in growth medium and plated in 96-well plate at 40,000 cells/well in 200 μl. Following overnight incubation, the medium is changed to experimental medium. […] Twenty-four hr. after treatment, the medium is discarded, cells are washed three times with D-PBS (GIBCO, BRL). Fifty μl of cell lysis buffer (Promega, Madison, Wis.) is added to each well and the plates are shaken for 15 min in a Titer Plate Shaker (Lab Line Instrument, Inc.). Luciferase activity is measured using luciferase reagents from Promega.
Each treatment consists of at least 4 replicates. Log transformed data are used for analysis of variance and nonlinear dose response curve fitting for both agonist and antagonist modes. Huber weighting is used to downweight the effects of outliers. EC50 or IC50 values are calculated from the retransformed values.

The test system of data set [1] is alkaline phosphatase activity in T47D cells. The data set is described as follows: T47D cell alkaline phosphatase assay. Type of data set: cell-based. The settings on record: antagonist activity in the presence of 1 nM progesterone, 24 hr. The protocol:
4. T47D Cell Alkaline Phosphatase Assay
The purpose of this assay is to identify progestins or antiprogestins by determining a compound's effect on alkaline phosphatase activity in T47D cells.
DMEM:F12 (1:1) (GIBCO, BRL) supplemented with 5% (v/v) charcoal stripped fetal bovine serum (not heat-inactivated), 100 U/ml penicillin, 100 μg/ml streptomycin, and 2 mM GlutaMax (GIBCO, BRL). b. Alkaline Phosphatase Assay Buffer
I. 0.1 M Tris-HCl, pH 9.8, containing 0.2% Triton X-100
II. 0.1 M Tris-HCl, pH 9.8 containing 4 mM p-nitrophenyl phosphate (Sigma). c. Cell Culture and Treatment
Frozen T47D cells were thawed in a 37° C. water bath and diluted to 280,000 cells/ml in culture medium. To each well in a 96-well plate (Falcon, Becton Dickinson Labware), 180 μl of diluted cell suspension was added. Twenty μl of reference or test compounds diluted in the culture medium was then added to each well. […] The cells were incubated at 37° C. in a 5% CO2/humidified atmosphere for 24 hr. […]
d. Alkaline Phosphatase Enzyme Assay
At the end of treatment, the medium was removed from the plate and fifty μl of assay buffer I was added to each well. The plates were shaken in a titer plate shaker for 15 min. […]
For reference and test compounds, a dose response curve is generated for dose (X-axis) vs. the rate of enzyme reaction (slope) (Y-axis). […] EC50 or IC50 values are calculated from the retransformed values.

In the next data set the test system is T47D cells. The data set is described as follows: T47D cell proliferation assay (BrdU incorporation). The class given is cell-based. The protocol: 1. T47D Cell Proliferation Assay
The objective of this assay is the determination of progestational and antiprogestational potency by using a cell proliferation assay in T47D cells. A compound's effect on DNA synthesis in T47D cells is measured.
DMEM:F12 (1:1) (GIBCO, BRL) supplemented with 10% (v/v) fetal bovine serum (not heat-inactivated), 100 U/ml penicillin, […] streptomycin, and […] GlutaMax (GIBCO, BRL).
Minimum Essential Medium (MEM) (#51200-038GIBCO, BRL) phenol red-free supplemented with 0.5% charcoal stripped fetal bovine serum, 100 U/ml penicillin, […] streptomycin, and 2 mM GlutaMax (GIBCO, BRL). […]
At the end of BrdU labeling, the medium is removed and BrdU incorporation is measured using a cell proliferation ELISA kit (#RPN 250, Amersham Life Science) according to manufacturer's instructions. […] Then 25 μl of 1 M sulfuric acid is added to each well to stop color reaction and optical density is read in a plate reader at 450 nm within 5 min.
Square root-transformed data are used for analysis of variance and nonlinear dose response curve fitting for both agonist and antagonist modes. […] EC50 or IC50 values are calculated from the retransformed values.
Trimegestone and medroxyprogesterone acetate (MPA) are reference progestins and RU486 is the reference antiprogestin. All reference compounds are run in fill dose-response curves and the EC50 or IC50 values are calculated.
Background: Dividing cells build labelled thymidine or BrdU into new DNA.

Data set [2] deals with rat uterine decidualization. The data set is described as follows: Rat decidualization assay. Particulars: ovariectomized female Sprague-Dawley rats; for Estimated average EC50 for dose-response curves (decidual response): s.c. The class given is in vivo. As to the method:
2. Rat Decidualization Assay
b. Animals (RACUC Protocol #5002)
The animals are treated once daily for seven days.
Uteri are removed and trimmed of fat.
Body weight: Mean total animal body weight (default-kg)
Decidual response: [(D-C)/C]×100%

On to `O=C1CNc2cc(-c3cccc(Cl)c3)ccc2N1` [Compound C2], for which the IC50 against human PR was 525 nM.

`CC(C)n1c(=O)[nH]c2ccc(-c3cccc([N+](=O)[O-])c3)cc21` [Compound 6] gave an IC50 against human PR of 147 nM.

As for `CN1CC(=O)Nc2ccc(-c3cccc(Cl)c3)cc21` [Compound C1, 6-(3-Chloro-phenyl)-4-methyl-3,4-dihydro-1H-quinoxalin-4-one], the IC50 in data set [1] came to 600 nM.

`CCCCN1CC(=O)Nc2ccc(-c3cccc(Cl)c3)cc21` [Compound C6, 4-(n-Butyl)-6-(3-chloro-phenyl)-3,4-dihydro-1H quinoxalin-2-one]: the melting point (as a rule, the temperature of the solid-liquid transition) was in the range of 110 to 115 °C.

The compound `CC(C)OC(=O)N1CC(=O)Nc2ccc(-c3cccc(Cl)c3)cc21` [Example 29, Isopropyl 7-(3-chlorophenyl)-3-oxo-3,4-dihydroquinoxalin-1(2H)-carboxylate] registered a melting point of 174 to 176 °C.

`Cn1c(=O)[nH]c2cc(-c3cccc([N+](=O)[O-])c3)ccc21` [Compound 5]: at human PR, the IC50 came out at 750 nM.

Consider `C[C@H](O)C(=O)[C@@]1(C)CC[C@H]2[C@@H]3CCC4=CC(=O)CCC4=C3CC[C@@]21C` [Trimegestone], for which the EC50 in the data set on T47D cells (individual studies, read-out: Estimated EC50 (half-maximal increase in BrdU incorporation)) was 0.017 nM and 0.014 nM and 0.019 nM.

`CCC1Sc2cc(-c3cccc([N+](=O)[O-])c3)ccc2NC1=O` (stereo not shown) [Compound B2] yielded an IC50 against human PR of 295 nM.

As for `CN1CC(=O)Nc2ccc(-c3cc(C#N)cs3)cc21` [Compound C3, 5-(3,4-Dihydro-4-methyl-2-oxo-quinaxalin-6-yl)thiophene-3-carbonitrile], the IC50 in data set [1] stood at 300 nM.

For `C#C[C@]1(O)CC[C@H]2[C@@H]3CCC4=CC(=O)CC[C@@H]4[C@H]3CC[C@@]21CC` [Levonorgestrel], the “Estimated average EC50 for dose-response curves (decidual response)” value in data set [2] is recorded as 0.10 mg/kg, s.c.

As to `C#C[C@]1(O)CC[C@H]2[C@@H]3CCC4=CC(=O)CC[C@@H]4[C@H]3C(=C)C[C@@]21CC` [3-Ketodesogestrel], in data set [2] (s.c. once daily for seven days, individual studies), the “Estimated EC50 for uterine weight (decidual response)” value was 0.10 mg/kg, s.c. and 0.06 mg/kg, s.c. and 0.11 mg/kg, s.c. Besides, the “Estimated average EC50 for dose-response curves (decidual response)” value in data set [2] is 0.10 mg/kg, s.c.

The compound `CC(C)n1c(=O)[nH]c2ccc(-c3cccc(Cl)c3)cc21` [Compound 7] came in with an IC50 against human PR of 155 nM.

For the compound `O=C1CSc2cc(-c3cccc([N+](=O)[O-])c3)ccc2N1` [Compound B1, 7-(3-Nitro-phenyl)-4H-benzo[1,4]thiazin-3-one], the IC50 at human PR was 220 nM.

`O=c1[nH]c2ccc(-c3cccc([N+](=O)[O-])c3)cc2n1Cc1ccccc1` [Compound 2, 1-Benzyl-6-(3-nitro-phenyl)-1,3-dihydro-benzoimidazol-2-one]: the IC50 at human PR amounted to 230 nM.

As for `CC#C[C@]1(O)CC[C@H]2[C@@H]3CCC4=CC(=O)CCC4=C3[C@@H](c3ccc(N(C)C)cc3)C[C@@]21C` [RU486], in the data set with T47D cells (read-out: Estimated IC50 (half-maximal decrease in trimegestone induced BrdU incorporation), in presence of 0.03 nM trimegestone (b226 prints 0.1), individual studies), the IC50 is 0.016 nM and 0.018 nM.
